This is an account of results in patent US12391695B2, “PRMT5 inhibitors” (Lupin Limited, priority 2019, dated 2025).

Experiment [1] concerns the target PRMT5:MEP50 (Homo sapiens, UniProt O14744). The experiment in a line: PRMT5 biochemical assay (HTRF, biotinylated H4R3 substrate), protocols 1 and 2. As to conditions: 1 μM SAM, 50 nM biotinylated H4R3, protocol 1 or 2 not given, read-out: IC50 (activity range), inhibition of PRMT5. The protocol:
(§1) Inhibitory effect of compounds on PRMT5 was assessed using HTRF detection technology in biochemical assay. Biotinylated H4R3 (residues 1-21) was used as a substrate. Compounds were pre-incubated with 15-25 ng PRMT5:MEP50 per well of a 384-well plate for 30 min at room temperature in the assay buffer containing 20 mM Bicine, pH 7.6, 25 mM NaCl, 2 mM DTT, 0.01% Chicken albumin and 0.01% Tween-20. Reaction was initiated by adding 1 μM of SAM and 50 nM biotinylated H4R3. Total assay volume was 15 μL. Reaction was continued for 120 min at room temperature. Then detection solution containing Streptavidin-Eu cryptate, anti-rabbit IgG-XL-665, Histone H4R3 Dimethyl Symmetric (H4R3me2s) Polyclonal Antibody, all prepared in HTRF detection buffer was added and further incubated for 30 min at room temperature. HTRF signal was recorded in PHERAStar microplate reader. Ratio of signal obtained at 665 nm and 620 nm was used to compute the percent inhibition of compound as follows % Inhibition=100−((Test Ratio−Negative control Ratio)/(Positive control Ratio−Negative control Ratio)*100) where Positive control=PRMT5+SAM+H4R3 Negative control=PRMT5+H4R3 Biochemical Assay Protocol 2
as §1, with “2.5” for “15-25”, “4 h” for “120 min”, “control=PRMT5+H4R3” for “control=PRMT5+H4R3 Biochemical Assay Protocol 2”
On the technique in general: In TR-FRET formats the signal depends on donor and acceptor labels being close together.

In experiment [2] the test system is Z-138 cells. The experiment in a line: Anti-cancer assay (Z-138), cell viability by CellTiterGlo. It counts as cell-based. The settings on record: Homo sapiens, 96 h treatment, read-out: IC50 (activity range), inhibition of cell viability. The protocol: Z-138 cells were seeded at a density of 2000-3000 cells per well in culture media (IMDM+10% FBS). PANC-1 (ATCC, CRL-1469™) and MIA PaCa-2 (ATCC, CRL-1420™) cells were seeded at a density of 200-300 cells per well in culture media (DMEM+10% FBS). Cells were seeded in opaque, flat bottomed tissue culture grade 96-well plates and Z-138 cells (suspension) were seeded and treated on the same day with various concentrations of test compounds. PANC-1 and MIA PaCa-2 cells, being adherent, were kept for overnight settlement at standard cell culture conditions (37° C., 5% CO2). On the following day, cells were treated with various concentrations of test compounds. Cells were treated with test compounds for a period of 96 h, 7 days and 10 days, for Z-138 cells, PANC-1 cells and MIA PaCa-2 cells, respectively. Cell viability was assessed using CellTiterGlo™ (Promega, USA) as per manufacturer's instructions. Relative Light Units (RLU) were read in Synergy™ 2 reader (Biotek, USA). The assay measures cellular ATP as an indicator of cell viability. RLU is proportional to the number of viable cells in the respective well. % inhibition of cell viability was calculated relative to the vehicle control samples containing media with 0.1% DMSO alone as per the formula below. (Avg. of Untreated Control−Avg. of Test)×100 Avg. Of Untreated Control
The IC50 values of individual compounds were calculated with Non Linear Regression Analysis using Graph Pad Prism (Graph Pad software, Inc, USA). • Anti-Cancer Assay (Z-138)
(Cellular ATP, detected with luciferase, serves as a proxy for viable cell number.)

Experiment [3] relates to SDMA. In words: SDMA inhibition assay in Z-138 cells (ELISA with anti-SDMA antibody). It counts as cell-based. As to conditions: Homo sapiens, Z-138, 48 h, 48 h treatment. As to the method: Z-138 cells (ATCC, CRL-3001™) were seeded at a density of 1 million cells/well in transparent, flat bottomed tissue culture grade 48-well plates. Cells were treated with various concentration of test compounds for a period of 48 h. Cell lysate was prepared using 1× CST Lysis buffer (Cell Signaling Technology, USA) and 500 ng/well/50 μL of lysate in pH 9.6 carbonate buffer was coated on 96-well Maxisorb plate and incubated overnight at 4° C. The plate was washed twice in 1×PBS containing 0.05% Tween 20 and blocked in 1% BSA for 1 h at ambient temperature. Further, the plate was incubated first with primary antibody (anti-SDMA antibody; CST #13222s) at ambient temperature for 2 h and then with HRP-conjugated secondary antibody at ambient temperature for 1 h with 2 intermittent washing steps in between.
For luminiscence based detection, HRP substrates (substrate A+substrate B in a 1:1 proportion) were added followed by luminiscence reading after 30 min in Synergy™ 2 reader (Biotek, USA).
For absorbance based detection, TMB substrate was added followed by addition of STOP solution (2N H2SO4) post colour development and absorbance (excitation 450 nm and emission 540 nm) was measured in Synergy™ 2 reader (Biotek, USA).
% inhibition of SDMA was calculated relative to the vehicle control samples containing media with 0.1% DMSO alone as per the formula below. (Avg. of Untreated Control−Avg. of Test)×100 Avg. Of Untreated Control
The IC50 values of individual compounds were calculated with Non Linear Regression Analysis using Graph Pad Prism (Graph Pad software, Inc, USA).

Where [4] appears, read: read-out: IC50 (activity range), SDMA inhibition.
Where [5] appears, read: range with mixed units pM/nM, units kept in the value.

Where two headings read alike, the source gives them in different places.

One may read the IC50 as the concentration that gives 50% inhibition.

Sequence of PRMT5:MEP50 (O14744 whole entry, the tested form may be a part): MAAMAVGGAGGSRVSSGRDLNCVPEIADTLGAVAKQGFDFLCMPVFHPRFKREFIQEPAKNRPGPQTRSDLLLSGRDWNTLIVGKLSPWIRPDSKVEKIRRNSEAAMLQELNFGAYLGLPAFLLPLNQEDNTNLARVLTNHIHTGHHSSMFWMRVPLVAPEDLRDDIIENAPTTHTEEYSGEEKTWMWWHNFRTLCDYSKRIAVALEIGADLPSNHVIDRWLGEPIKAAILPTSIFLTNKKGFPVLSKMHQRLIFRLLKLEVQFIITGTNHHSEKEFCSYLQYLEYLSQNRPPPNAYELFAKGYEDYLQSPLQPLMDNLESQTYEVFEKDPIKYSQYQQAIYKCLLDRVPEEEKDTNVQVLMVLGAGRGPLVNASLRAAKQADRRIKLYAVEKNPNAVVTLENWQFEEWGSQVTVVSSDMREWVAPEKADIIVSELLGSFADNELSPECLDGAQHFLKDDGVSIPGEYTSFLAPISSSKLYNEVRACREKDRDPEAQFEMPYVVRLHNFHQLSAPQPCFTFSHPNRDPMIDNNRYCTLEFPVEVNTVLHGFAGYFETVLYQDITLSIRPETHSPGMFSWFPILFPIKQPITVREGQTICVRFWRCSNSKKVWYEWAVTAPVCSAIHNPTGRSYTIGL
Sequence of PRMT5:MEP50 (Q9BQA1 whole entry partner, the tested form may be a part): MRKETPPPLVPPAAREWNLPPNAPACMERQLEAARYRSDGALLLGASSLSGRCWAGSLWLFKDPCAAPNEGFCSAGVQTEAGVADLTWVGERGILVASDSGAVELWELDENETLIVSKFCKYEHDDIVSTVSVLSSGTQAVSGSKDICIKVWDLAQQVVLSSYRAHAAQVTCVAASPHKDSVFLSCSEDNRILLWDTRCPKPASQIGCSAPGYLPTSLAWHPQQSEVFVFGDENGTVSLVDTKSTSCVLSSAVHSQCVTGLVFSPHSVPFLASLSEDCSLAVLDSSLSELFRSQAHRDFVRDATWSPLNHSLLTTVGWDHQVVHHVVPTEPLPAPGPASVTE

Turning to `Cc1cc2c(c(CCC3=C[C@@H](n4ccc5c(N)ncnc54)[C@H](O)[C@@H]3O)c1)CNCC2` [Compound 8, (1S,2R,5R)-5-(4-amino-7H-pyrrolo[2,3-d]pyrimidin-7-yl)-3-(2-(6-methyl-1,2,3,4-tetrahydroisoquinolin-8-yl)ethyl)cyclopent-3-ene-1,2-diol], the results for the half-inhibitory concentration (IC50) in experiment [1], in experiment [2] and in experiment [3] (setting [4]) were 0.25 to 0.95 nM, greater than 1000 pM and 1100 to 50000 pM, respectively.
The corresponding values for `Nc1ncnc2c1ccn2[C@@H]1C=C(CCc2ccc(F)c3c2CNCC3)[C@@H](O)[C@H]1O` [Compound 9, (1S,2R,5R)-5-(4-amino-7H-pyrrolo[2,3-d]pyrimidin-7-yl)-3-(2-(5-fluoro-1,2,3,4-tetrahydroisoquinolin-8-yl)ethyl)cyclopent-3-ene-1,2-diol] are 0.25 to 0.95 nM, greater than 1000 pM and 1100 to 50000 pM.
With `Nc1ncnc2c1ccn2[C@@H]1C=C(CCc2cc(C(F)F)cc3c2CNCC3)[C@@H](O)[C@H]1O` [Compound 10, (1S,2R,5R)-5-(4-amino-7H-pyrrolo[2,3-d]pyrimidin-7-yl)-3-(2-(6-(difluoromethyl)-1,2,3,4-tetrahydroisoquinolin-8-yl)ethyl)cyclopent-3-ene-1,2-diol], the IC50 is 0.25 to 0.95 nM in experiment [1], 101 to 1000 pM in experiment [2] (setting [5]) and 100 to 1000 pM in experiment [3] (setting [5]).
In the case of `Nc1ncnc2c1ccn2[C@@H]1C=C(CCc2ccc(C(F)F)c3c2CNCC3)[C@@H](O)[C@H]1O` [Compound 11, (1S,2R,5R)-5-(4-amino-7H-pyrrolo[2,3-d]pyrimidin-7-yl)-3-(2-(5-(difluoromethyl)-1,2,3,4-tetrahydroisoquinolin-8-yl)ethyl)cyclopent-3-ene-1,2-diol], the IC50 was 0.25 to 0.95 nM in experiment [1], greater than 1000 pM in experiment [2] and 1100 to 50000 pM in experiment [3] (setting [4]).
The corresponding values for `Nc1ncnc2c1ccn2[C@@H]1C=C(COc2cc(C(F)F)c(F)c3c2CNCC3)[C@@H](O)[C@H]1O` [Compound 12, (1S,2R,5R)-5-(4-amino-7H-pyrrolo[2,3-d]pyrimidin-7-yl)-3-(((6-(difluoromethyl)-5-fluoro-1,2,3,4-tetrahydroisoquinolin-8-yl)oxy)methyl)cyclopent-3-ene-1,2-diol] are 0.25 to 0.95 nM, greater than 1000 pM and 1100 to 50000 pM.
`Nc1ncnc2c1ccn2[C@@H]1C=C(CCc2cc(C(F)F)c(F)c3c2CNCC3)[C@@H](O)[C@H]1O` [Compound 13, (1S,2R,5R)-5-(4-amino-7H-pyrrolo[2,3-d]pyrimidin-7-yl)-3-(2-(6-(difluoromethyl)-5-fluoro-1,2,3,4-tetrahydroisoquinolin-8-yl)ethyl)cyclopent-3-ene-1,2-diol]: the results for the IC50 in experiment [1], in experiment [2] (setting [5]) and in experiment [3] (setting [4]) were 0.25 to 0.95 nM, 101 to 1000 pM and 1100 to 50000 pM, respectively.
Regarding `Cc1ncnc2c1ccn2[C@@H]1C=C(CCc2cc(C(F)F)cc3c2CNCC3)[C@@H](O)[C@H]1O` [Compound 14, (1S,2R,5R)-3-(2-(6-(difluoromethyl)-1,2,3,4-tetrahydroisoquinolin-8-yl)ethyl)-5-(4-methyl-7H-pyrrolo[2,3-d]pyrimidin-7-yl)cyclopent-3-ene-1,2-diol], the values for the IC50 in experiment [1], in experiment [2] (setting [5]) and in experiment [3] (setting [4]) were 0.25 to 0.95 nM, 101 to 1000 pM and 1100 to 50000 pM, respectively.
On to `Cc1ncnc2c1ccn2[C@@H]1C=C(CCc2cc(C(F)F)c(F)c3c2CNCC3)[C@@H](O)[C@H]1O` [Compound 15, (1S,2R,5R)-3-(2-(6-(difluoromethyl)-5-fluoro-1,2,3,4-tetrahydroisoquinolin-8-yl)ethyl)-5-(4-methyl-7H-pyrrolo[2,3-d]pyrimidin-7-yl)cyclopent-3-ene-1,2-diol], for which the IC50 is 0.25 to 0.95 nM in experiment [1], 101 to 1000 pM in experiment [2] (setting [5]) and 100 to 1000 pM in experiment [3] (setting [5]).
For the molecule `Nc1cc(=O)n([C@@H]2C=C(COc3cc(F)c4cc(Cl)c(N)nc4c3)[C@@H](O)[C@H]2O)cn1` [Compound 17, 6-amino-3-((1R,4R,5S)-3-(((2-amino-3-chloro-5-fluoroquinolin-7-yl)oxy)methyl)-4,5-dihydroxycyclopent-2-en-1-yl)pyrimidin-4 (3H)-one], the IC50 in experiment [1] is 0.25 to 0.95 nM; in experiment [2] it was greater than 1000 pM; in experiment [3] (setting [4]), 1100 to 50000 pM.
With `Cc1cc(=O)n([C@@H]2C=C(COc3cc(F)c4cc(Cl)c(N)nc4c3)[C@@H](O)[C@H]2O)cn1` [Compound 18, 3-((1R,4R,5S)-3-(((2-amino-3-chloro-5-fluoroquinolin-7-yl)oxy)methyl)-4,5-dihydroxycyclopent-2-en-1-yl)-6-methylpyrimidin-4 (3H)-one], the half-inhibitory concentration (IC50) was greater than 0.95 nM in experiment [1], greater than 1000 pM in experiment [2] and 1100 to 50000 pM in experiment [3] (setting [4]).
Consider `Nc1nc2cc(OCC3=C[C@@H](n4cnc(N)c(F)c4=O)[C@H](O)[C@@H]3O)cc(F)c2cc1Cl` [Compound 19, 6-amino-3-((1R,4R,5S)-3-(((2-amino-3-chloro-5-fluoroquinolin-7-yl)oxy)methyl)-4,5-dihydroxycyclopent-2-en-1-yl)-5-fluoropyrimidin-4 (3H)-one], for which the IC50 is greater than 0.95 nM in experiment [1], greater than 1000 pM in experiment [2] and 100 to 1000 pM in experiment [3] (setting [5]).
Regarding `Nc1ncnc2c1ccn2[C@@H]1C=C(CCc2cc(Cl)c(F)c3c2CNCC3)[C@@H](O)[C@H]1O` [Compound 20, (1S,2R,5R)-5-(4-amino-7H-pyrrolo[2,3-d]pyrimidin-7-yl)-3-(2-(6-chloro-5-fluoro-1,2,3,4-tetrahydroisoquinolin-8-yl)ethyl)cyclopent-3-ene-1,2-diol], the IC50 in experiment [1] is 0.25 to 0.95 nM; in experiment [2], greater than 1000 pM; in experiment [3] (setting [4]), 1100 to 50000 pM.
Regarding `Nc1ncnc2c1ccn2[C@@H]1C=C(CCc2cc(F)c(F)c3c2CNCC3)[C@@H](O)[C@H]1O` [Compound 21, (1S,2R,5R)-5-(4-amino-7H-pyrrolo[2,3-d]pyrimidin-7-yl)-3-(2-(5,6-difluoro-1,2,3,4-tetrahydroisoquinolin-8-yl)ethyl)cyclopent-3-ene-1,2-diol], the IC50 in experiment [1] lay in the range of 0.25 to 0.95 nM; in experiment [2] (setting [5]) it was 101 to 1000 pM; in experiment [3] (setting [4]), 1100 to 50000 pM.
